Assay results: article PMC6047346 (Journal of medicinal chemistry, 2017)
Where two headings read alike, the source gives them in different places.

What was measured:
[1] = system: U937 cells; details: cited from earlier work
[2] = system: SphK1; details: both the rat and human enzymes; cited from earlier work
[3] = system: rats; details: cited from earlier work
[4] = target: human SphK1 (Homo sapiens, UniProt Q9NYA1); assay: Sphingosine kinase assay, recombinant human SphK1, γ-[32P]ATP; details: for remaining activity at 0.3 µM: read-out: hSphK1 (SphK activity, % control, no inhibitor added)
[5] = target: T1, human SphK2 (Homo sapiens, UniProt Q9NRA0); assay: Sphingosine kinase assay, recombinant human SphK2, γ-[32P]ATP; details: for inhibition at 0.3 µM: read-out: SphK2 inhibition (decrease of activity); for hSphK2 (SphK activity, % control, no inhibitor added): compounds at 0.3 μM, triplicate, 10 μM sphingosine, 250 μM γ-[32P]ATP
T1 sequence (Q9NRA0 1-654): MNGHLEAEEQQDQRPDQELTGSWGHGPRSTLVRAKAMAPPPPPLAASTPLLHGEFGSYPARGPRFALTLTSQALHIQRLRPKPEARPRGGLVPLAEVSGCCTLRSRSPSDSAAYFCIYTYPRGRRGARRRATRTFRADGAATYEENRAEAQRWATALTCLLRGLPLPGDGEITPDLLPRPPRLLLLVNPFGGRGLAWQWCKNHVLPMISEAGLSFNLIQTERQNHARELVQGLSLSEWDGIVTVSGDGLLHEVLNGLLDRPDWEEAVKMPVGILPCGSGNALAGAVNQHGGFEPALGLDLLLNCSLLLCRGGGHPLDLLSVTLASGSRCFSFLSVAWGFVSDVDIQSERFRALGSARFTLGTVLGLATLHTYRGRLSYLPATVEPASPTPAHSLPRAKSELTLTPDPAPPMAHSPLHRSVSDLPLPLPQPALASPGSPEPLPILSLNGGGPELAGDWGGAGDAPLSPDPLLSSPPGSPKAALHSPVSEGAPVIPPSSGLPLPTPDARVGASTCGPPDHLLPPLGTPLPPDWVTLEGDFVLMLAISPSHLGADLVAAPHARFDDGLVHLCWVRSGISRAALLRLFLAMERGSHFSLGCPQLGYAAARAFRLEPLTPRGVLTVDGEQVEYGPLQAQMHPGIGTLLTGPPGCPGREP

[6] = system: U937 cells; assay: Sphingolipid; type: cell-based, human; details: 2 h incubation, LC-MS-MS
[7] = system: C57BL/6 mice; assay: Blood S1P levels in mice after ip dosing, LC-MS-MS; type: in vivo; details: single 10 mg/kg ip dose
[8] = read-out: hSphK2 (SphK activity, % control, no inhibitor added)
[9] = read-out: SphK2 activity remaining

human SphK1, sequence (Q9NYA1 whole entry): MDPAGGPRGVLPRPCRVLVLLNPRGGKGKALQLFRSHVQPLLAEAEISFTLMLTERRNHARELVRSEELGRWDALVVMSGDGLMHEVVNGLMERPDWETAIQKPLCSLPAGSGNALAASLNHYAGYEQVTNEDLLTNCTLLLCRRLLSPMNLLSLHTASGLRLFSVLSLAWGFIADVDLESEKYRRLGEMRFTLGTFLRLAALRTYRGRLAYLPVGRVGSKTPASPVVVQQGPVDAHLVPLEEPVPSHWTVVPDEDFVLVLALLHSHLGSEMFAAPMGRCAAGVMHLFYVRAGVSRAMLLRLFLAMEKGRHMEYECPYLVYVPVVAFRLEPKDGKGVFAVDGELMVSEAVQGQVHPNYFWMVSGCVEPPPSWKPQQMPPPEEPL

CCCCCCCCc1ccc(-c2noc(C[C@@H]3CCCN3C(=N)N)n2)cc1 [Compound 3]
S1P levels in cultured human U937 leukemia cells [1]: reduce S1P levels
selectivity for SphK1 over SphK2 [2]: > 100 fold
S1P levels in the bloodstream of rats [3]: reduce S1P levels

Cl.N=C(N)N1CCC[C@H]1Cc1nc(-c2ccc(Nc3nc(-c4ccccc4)cs3)cc2)no1 [Compound 20a, (S)-amino(2-((3-(4-((4-phenylthiazol-2-yl)amino)phenyl)-1,2,4-oxadiazol-5-yl)methyl)pyrrolidin-1-yl)methaniminium chloride]
SphK1 inhibition, in words ([4]; screen at 0.3 μM): poor inhibition
SphK2 inhibition, in words ([5]; screen at 0.3 μM): poor inhibition

N=C(N)N1CCC[C@H]1Cc1nc(-c2ccc(Nc3nc(-c4ccncc4)cs3)cc2)no1.O=C(O)C(F)(F)F [Compound 20b, (S)-amino(2-((3-(4-((4-(pyridin-4-yl)thiazol-2-yl)amino)phenyl)-1,2,4-oxadiazol-5-yl)methyl)pyrrolidin-1-yl)methaniminium trifluoroacetate]
SphK1 inhibition, in words ([4]; screen at 0.3 μM): inactive
SphK2 inhibition, in words ([5]; screen at 0.3 μM): inactive

Cl.N=C(N)N1CCC[C@H]1Cc1nc(-c2ccc(Nc3nc(-c4cc(C(F)(F)F)cc(C(F)(F)F)c4)cs3)cc2)no1 [Compound 20bb, (S)-amino(2-((3-(4-((4-(3,5-bis(trifluoromethyl)phenyl)thiazol-2-yl)amino)phenyl)-1,2,4-oxadiazol-5-yl)methyl)pyrrolidin-1-yl)methaniminium chloride]
SphK1 inhibition, in words ([4]; concentrations up to 1 μM): inactive

Cl.N=C(N)N1CCC[C@H]1Cc1nc(-c2ccc(Nc3nc(-c4cccnc4)cs3)cc2)no1 [Compound 20c, (S)-amino(2-((3-(4-((4-(pyridin-3-yl)thiazol-2-yl)amino)phenyl)-1,2,4-oxadiazol-5-yl)methyl)pyrrolidin-1-yl)methaniminium chloride]
SphK1 inhibition, in words ([4]; screen at 0.3 μM): inactive
SphK2 inhibition, in words ([5]; screen at 0.3 μM): inactive

Cl.N=C(N)N1CCC[C@H]1Cc1nc(-c2ccc(Nc3nc(-c4ccc(-c5ccccc5)cc4)cs3)cc2)no1 [Compound 20dd, (S)-(2-((3-(4-((4-([1,1′-biphenyl]-4-yl)thiazol-2-yl)amino)phenyl)-1,2,4-oxadiazol-5-yl)methyl)pyrrolidin-1-yl)(amino)methaniminium chloride]
S1P levels in U937 cells [6]: concentration-dependent decrease
Sph (sphingosine) levels in U937 cells [6]: remained constant
blood S1P levels ([7]; after 24 hours): returned to basal levels
blood S1P levels ([7]; two and six hour time points): increased

Cl.N=C(N)N1CCC[C@H]1Cc1nc(-c2ccc(Nc3nc(-c4cccc(C(F)(F)F)c4)cs3)cc2)no1 [Compound 20l, (S)-amino(2-((3-(4-((4-(3-(trifluoromethyl)phenyl)thiazol-2-yl)amino)phenyl)-1,2,4-oxadiazol-5-yl)methyl)pyrrolidin-1-yl)methaniminium chloride]
S1P levels in U937 cells [6]: concentration-dependent decrease
Sph (sphingosine) levels in U937 cells [6]: remained constant

Cc1ccc(-c2csc(Nc3ccc(-c4noc(C[C@@H]5CCCN5C(=N)N)n4)cc3)n2)cc1 [Compound 20n, (S)-amino(2-((3-(4-((4-(p-tolyl)thiazol-2-yl)amino)phenyl)-1,2,4-oxadiazol-5-yl)methyl)pyrrolidin-1-yl)methaniminium chloride]
remaining activity at 0.3 µM [4]: 89 ± 0.7%
inhibition at 0.3 µM [5]: < 30%
remaining activity at 0.3 µM [5, 8]: 44 ± 12%

COc1ccc(-c2csc(Nc3ccc(-c4noc(C[C@@H]5CCCN5C(=N)N)n4)cc3)n2)cc1 [Compound 20o, (S)-amino(2-((3-(4-((4-(4-methoxyphenyl)thiazol-2-yl)amino)phenyl)-1,2,4-oxadiazol-5-yl)methyl)pyrrolidin-1-yl)methaniminium chloride]
remaining activity at 0.3 µM [4]: 58 ± 4%
inhibition at 0.3 µM [5]: < 30%
remaining activity at 0.3 µM [5, 8]: 82 ± 6%

CCOc1ccc(-c2csc(Nc3ccc(-c4noc(C[C@@H]5CCCN5C(=N)N)n4)cc3)n2)cc1 [Compound 20p, (S)-amino(2-((3-(4-((4-(4-ethoxyphenyl)thiazol-2-yl)amino)phenyl)-1,2,4-oxadiazol-5-yl)methyl)pyrrolidin-1-yl)methaniminium chloride]
remaining activity at 0.3 µM [4]: 75 ± 0.2%
inhibition at 0.3 µM [5]: < 30%
remaining activity at 0.3 µM [5, 8]: 80 ± 7%

N=C(N)N1CCC[C@H]1Cc1nc(-c2ccc(Nc3nc(-c4ccc(OC(F)(F)F)cc4)cs3)cc2)no1 [Compound 20r, (S)-amino(2-((3-(4-((4-(4-(trifluoromethoxy)phenyl)thiazol-2-yl)amino)phenyl)-1,2,4-oxadiazol-5-yl)methyl)pyrrolidin-1-yl)methaniminium chloride]
remaining activity at 0.3 µM [5, 9]: ~40%
remaining activity at 0.3 µM [5, 8]: 84 ± 2%

N=C(N)N1CCC[C@H]1Cc1nc(-c2ccc(Nc3nc(-c4cccc(OC(F)(F)F)c4)cs3)cc2)no1 [Compound 20s, (S)-amino(2-((3-(4-((4-(3-(trifluoromethoxy)phenyl)thiazol-2-yl)amino)phenyl)-1,2,4-oxadiazol-5-yl)methyl)pyrrolidin-1-yl)methaniminium chloride]
remaining activity at 0.3 µM [4]: 90 ± 1%
remaining activity at 0.3 µM [5, 8]: 100 ± 2%

COc1ccc(-c2csc(Nc3ccc(-c4noc(C[C@@H]5CCCN5C(=N)N)n4)cc3)n2)cc1Cl.Cl [Compound 20v, (S)-amino(2-((3-(4-((4-(3-chloro-4-methoxyphenyl)thiazol-2-yl)amino)phenyl)-1,2,4-oxadiazol-5-yl)methyl)pyrrolidin-1-yl)methaniminium chloride]
SphK1 inhibition, in words ([4]; screen at 0.3 μM): no SphK1 inhibition
remaining activity at 0.3 µM [5, 9]: ~70%

Cl.N=C(N)N1CCC[C@H]1Cc1nc(-c2ccc(Nc3nc(-c4ccc(-c5ccc(C(F)(F)F)cc5)cc4)cs3)cc2)no1 [Compound 23c, (S)-amino(2-((3-(4-((4-(4′-(trifluoromethyl)-[1,1′-biphenyl]-4-yl)thiazol-2-yl)amino)phenyl)-1,2,4-oxadiazol-5-yl)methyl)pyrrolidin-1-yl)methaniminium chloride]
SphK1 inhibition, in words ([4]; screen at 0.3 μM): inactive
SphK2 inhibition, in words ([5]; screen at 0.3 μM): inactive

Cl.N=C(N)N1CCC[C@H]1Cc1nc(-c2ccc(Nc3nc(-c4ccc(-c5cccc(C(F)(F)F)c5)cc4)cs3)cc2)no1 [Compound 23d, (S)-amino(2-((3-(4-((4-(3′-(trifluoromethyl)-[1,1′-biphenyl]-4-yl)thiazol-2-yl)amino)phenyl)-1,2,4-oxadiazol-5-yl)methyl)pyrrolidin-1-yl)methaniminium chloride]
SphK1 inhibition, in words ([4]; screen at 0.3 μM): inactive
SphK2 inhibition, in words ([5]; screen at 0.3 μM): inactive

N=C(N)N1CCC[C@H]1Cc1nc(-c2ccc(Oc3nc(-c4ccc(C(F)(F)F)cc4)cs3)cc2)no1 [Compound 31, (S)-amino(2-((3-(4-((4-(4-(trifluoromethyl)phenyl)thiazol-2-yl)oxy)phenyl)-1,2,4-oxadiazol-5-yl)methyl)pyrrolidin-1-yl)methaniminium chloride]
inhibition at 0.3 µM ([4]; read-out: SphK1 inhibition (decrease of activity)): ~45%
inhibition at 0.3 µM [5]: ~45%

(S)-(2-((3-(4-((4-([1,1′-biphenyl]-4-yl)thiazol-2-yl)amino)phenyl)-1,2,4-oxadiazol-5-yl)methyl)pyrrolidin-1-yl)(amino)methaniminium chloride [Compound 34]
hSphK2 (SphK activity, % control, no inhibitor added) [5]: 100 ±5 % control
SphK2 inhibition, in words ([5]; concentrations up to 1 μM): completely inactive

(S)-amino(2-((3-(4-((4-(benzofuran-2-yl)thiazol-2-yl)amino)phenyl)-1,2,4-oxadiazol-5-yl)methyl)pyrrolidin-1-yl)methaniminium chloride [Compound 20ee]
hSphK2 (SphK activity, % control, no inhibitor added) [5]: 67 ±5 % control
